Reference: ChEMBL document CHEMBL2169750, “Imidazo-benzothiazoles a potent microRNA modulator involved in cell proliferation” (Bioorg Med Chem Lett, 2012)
The source made the active and inactive calls. No cut-off for these calls is given here.

Legend:
COLO 205 [1] = assay: Cell cycle arrest in human COLO205 cells assessed as accumulation at G2/M phase at 4 uM after 24 hrs by propidium iodide staining-based flow cytometry (reference value: 22%); format: functional
COLO 205 [2] = assay: Downregulation of HDAC-3 protein expression in human COLO205 cells at 4 uM after 24 hrs by Western blot analysis; format: functional, cell-based
COLO 205 [3] = assay: Cell cycle arrest in human COLO205 cells assessed as accumulation at S phase at 4 uM after 24 hrs by propidium iodide staining-based flow cytometry (reference value: 7%); format: functional
COLO 205 [4] = assay: Downregulation of HDAC-6 protein expression in human COLO205 cells at 4 uM after 24 hrs by Western blot analysis; format: functional, cell-based
COLO 205 [5] = assay: Cell cycle arrest in human COLO205 cells assessed as accumulation at G1 phase at 4 uM after 24 hrs by propidium iodide staining-based flow cytometry (reference value: 71%); format: functional
Drosophila melanogaster [6] = assay: Toxicity in Drosophila melanogaster third instar larvae assessed as change in larvae development at 40 uM administered through feeding measured after 5 days; format: organism-based; details: in vivo, po, 120 h
Drosophila melanogaster [7] = assay: Toxicity in Drosophila melanogaster third instar larvae assessed as change in fecundity at 40 uM administered through feeding measured after 5 days; format: organism-based; details: in vivo, po, 120 h
COLO 205 [8] = assay: Cytotoxicity against human COLO205 cells assessed as reduction in cell viability at 0.5 to 4 uM after 48 hrs by MTT assay; format: functional, cell-based
Drosophila melanogaster [9] = assay: Downregulation of miR-13a expression in Drosophila melanogaster third instar larval wing imaginal disc assessed as increase in EGFP expression at 40 uM administered through feeding measured after 5 days by confocal microscopy; format: functional, organism-based
Drosophila melanogaster [10] = assay: Downregulation of bantam microRNA expression in Drosophila melanogaster third instar larval wing imaginal disc assessed as increase in EGFP expression at 40 uM administered through feeding measured after 5 days by confocal microscopy; format: functional, organism-based
Drosophila melanogaster [11] = assay: Downregulation of miR-14 expression in Drosophila melanogaster third instar larval wing imaginal disc assessed as increase in EGFP expression at 40 uM administered through feeding measured after 5 days by confocal microscopy; format: functional, organism-based
Drosophila melanogaster [12] = assay: Downregulation of bantam microRNA expression in Drosophila melanogaster third instar larval wing imaginal disc assessed as increase in EGFP expression at 40 uM administered through feeding measured after 5 days by confocal microscopy relative to control; format: functional
Drosophila melanogaster [13] = assay: Downregulation of HDAC-1 mRNA expression in Drosophila melanogaster third instar larval wing imaginal disc at 10 to 100 uM administered through feeding measured after 5 days by semi quantitative RT-PCR analysis; format: functional, organism-based
COLO 205 [14] = assay: Induction of apoptosis in human COLO205 cells assessed as cellular blebbing at 4 uM after 24 hrs by Hoechst 33342-staining based confocal microscopy; format: functional, cell-based
COLO 205 [15] = assay: Cytotoxicity against human COLO205 cells assessed as decrease in AGO-1 expression at 4 uM after 24 hrs by Western blot analysis; format: functional, cell-based
Drosophila melanogaster [16] = assay: Upregulation of Reaper expression in Drosophila melanogaster third instar larval wing imaginal disc at 10 to 100 uM administered through feeding measured after 5 days by semi quantitative RT-PCR analysis relative to control; format: functional
Drosophila melanogaster [17] = assay: Downregulation of Dicer-1 expression in Drosophila melanogaster third instar larval wing imaginal disc at 10 to 100 uM administered through feeding measured after 5 days by semi quantitative RT-PCR analysis relative to control; format: functional
Drosophila melanogaster [18] = assay: Downregulation of HDAC4 mRNA expression in Drosophila melanogaster third instar larval wing imaginal disc at 10 to 100 uM administered through feeding measured after 5 days by semi quantitative RT-PCR analysis; format: functional, organism-based
Drosophila melanogaster [19] = assay: Downregulation of miR-13a expression in Drosophila melanogaster third instar larval wing imaginal disc assessed as increase in EGFP expression at 40 uM administered through feeding measured after 5 days by confocal microscopy relative to control; format: functional
Drosophila melanogaster [20] = assay: Downregulation of Pasha expression in Drosophila melanogaster third instar larval wing imaginal disc at 10 to 100 uM administered through feeding measured after 5 days by semi quantitative RT-PCR analysis relative to control; format: functional
COLO 205 [21] = assay: Induction of apoptosis in human COLO205 cells assessed as increase in caspase 3 expression at 4 uM after 24 hrs by fluorimetric assay relative to control; format: functional
COLO 205 [22] = assay: Cytotoxicity against human COLO205 cells assessed as Dicer-1 expression at 4 uM after 24 hrs by Western blot analysis; format: functional, cell-based
COLO 205 [23] = assay: Cytotoxicity against human COLO205 cells assessed as decrease in miR-542-5p level by RT-PCR analysis; format: functional, cell-based
Drosophila melanogaster [24] = assay: Induction of apoptosis in Drosophila melanogaster third instar larval wing imaginal disc assessed as Dronc activation at 10 to 100 uM administered through feeding measured after 5 days by semi quantitative RT-PCR analysis relative to control; format: functional
COLO 205 [25] = assay: Induction of apoptosis in human COLO205 cells assessed as increase in caspase 9 expression at 4 uM after 24 hrs by fluorimetric assay relative to control; format: functional
Drosophila melanogaster [26] = assay: Downregulation of HDAC6 mRNA expression in Drosophila melanogaster third instar larval wing imaginal disc at 10 to 100 uM administered through feeding measured after 5 days by semi quantitative RT-PCR analysis; format: functional, organism-based
COLO 205 [27] = assay: Induction of apoptosis in human COLO205 cells assessed as cellular shrinkage at 4 uM after 24 hrs by Hoechst 33342-staining based confocal microscopy; format: functional, cell-based
COLO 205 [28] = assay: Induction of apoptosis in human COLO205 cells assessed as caspase 9 expression at 4 uM after 24 hrs by fluorimetric assay in presence of Z-LEHD-FMK; format: functional, cell-based
COLO 205 [29] = assay: Cytotoxicity against human COLO205 cells assessed as decrease in AGO-2 expression at 4 uM after 24 hrs by Western blot analysis; format: functional, cell-based
Drosophila melanogaster [30] = assay: Induction of apoptosis in Drosophila melanogaster third instar larval wing imaginal disc assessed as Dcp-1 activation at 10 to 100 uM administered through feeding measured after 5 days by semi quantitative RT-PCR analysis relative to control; format: functional
Drosophila melanogaster [31] = assay: Downregulation of DIAP1 expression in Drosophila melanogaster third instar larval wing imaginal disc at 10 to 100 uM administered through feeding measured after 5 days by semi quantitative RT-PCR analysis; format: functional
Drosophila melanogaster [32] = assay: Upregulation of Grim expression in Drosophila melanogaster third instar larval wing imaginal disc at 10 to 100 uM administered through feeding measured after 5 days by semi quantitative RT-PCR analysis relative to control; format: functional
Drosophila melanogaster [33] = assay: Downregulation of HDAC3 mRNA expression in Drosophila melanogaster third instar larval wing imaginal disc at 10 to 100 uM administered through feeding measured after 5 days by semi quantitative RT-PCR analysis; format: functional, organism-based
Drosophila melanogaster [34] = assay: Effect on Ago-1 expression in Drosophila melanogaster third instar larval wing imaginal disc at 10 to 100 uM administered through feeding measured after 5 days by semi quantitative RT-PCR analysis; format: functional, organism-based
COLO 205 [35] = assay: Induction of apoptosis in human COLO205 cells assessed as caspase 3 expression at 4 uM after 24 hrs by fluorimetric assay in presence of Z-DEVD-FMK; format: functional, cell-based
COLO 205 [36] = assay: Cytotoxicity against human COLO205 cells assessed as increase in miR-145 level by RT-PCR analysis; format: functional, cell-based
COLO 205 [37] = assay: Induction of apoptosis in human COLO205 cells assessed as chromatin condensation at 4 uM after 24 hrs by Hoechst 33342-staining based confocal microscopy; format: functional, cell-based
COLO 205 [38] = assay: Cytotoxicity against human COLO205 cells assessed as miR-450 expression by RT-PCR analysis; format: functional, cell-based
Drosophila melanogaster [39] = assay: Downregulation of Sir2 mRNA expression in Drosophila melanogaster third instar larval wing imaginal disc at 10 to 100 uM administered through feeding measured after 5 days by semi quantitative RT-PCR analysis; format: functional, organism-based
Drosophila melanogaster [40] = assay: Downregulation of Drosha expression in Drosophila melanogaster third instar larval wing imaginal disc at 10 to 100 uM administered through feeding measured after 5 days by semi quantitative RT-PCR analysis relative to control; format: functional
COLO 205 [41] = assay: Induction of apoptosis in human COLO205 cells assessed as DNA fragmentation at 4 uM by tunel assay; format: functional, cell-based
Drosophila melanogaster [42] = assay: Upregulation of Hid expression in Drosophila melanogaster third instar larval wing imaginal disc at 10 to 100 uM administered through feeding measured after 5 days by semi quantitative RT-PCR analysis relative to control; format: functional

With `CCN(CC)CCOc1cccc(-c2cn3c(n2)sc2ccccc23)c1.Cl.Cl` the Activity (COLO 205 [1]) was 73%, the Activity (COLO 205 [2]) was “Active” and the Activity (COLO 205 [3]) was 5%. For the same molecule, the Activity (COLO 205 [4]) was “Active” and the Activity (COLO 205 [5]) was 22%.
With `CCOc1ccc2c(c1)sc1nc(-c3ccc(Cl)cc3)c(CN3CCN(c4ccccn4)CC3)n12` the Activity (Drosophila melanogaster [6]) was “Non-toxic”, the Activity (Drosophila melanogaster [7]) was “Non-toxic” and the Activity (COLO 205 [8]) was “Active”. For the same molecule, the Activity (Drosophila melanogaster [9]) was “Active”, the Activity (Drosophila melanogaster [10]) was “Active” and the Activity (Drosophila melanogaster [11]) was “inactive”.
`c1ccc(-c2nc3sc4ccccc4n3c2CN2CCCC2)cc1` was tested, and the Activity (Drosophila melanogaster [6]) was “Non-toxic”, the Activity (Drosophila melanogaster [7]) was “Non-toxic” and the Activity (COLO 205 [8]) was “Active”.
With `Fc1ccc2c(c1)sc1nc(-c3ccccc3)c(CN3CCCC3)n12` the Activity (Drosophila melanogaster [6]) was “Non-toxic”, the Activity (Drosophila melanogaster [7]) was “Non-toxic” and the Activity (COLO 205 [8]) was “Active”.
In the case of `Clc1ccc(-c2nc3sc4ccccc4n3c2CN2CCCC2)cc1`, the Activity (Drosophila melanogaster [6]) is reported as “Non-toxic”, the Activity (Drosophila melanogaster [7]) is reported as “Non-toxic” and the Activity (COLO 205 [8]) is reported as “Active”.
For `Clc1ccc(-c2nc3sc4ccccc4n3c2CN2CCN(c3ccccn3)CC2)cc1`, the “fold change (FC)” value (Drosophila melanogaster [12]) was 5, the Activity (Drosophila melanogaster [13]) was “inactive” and the Activity (COLO 205 [14]) was “Active”. For the same molecule, the Activity (COLO 205 [15]) was “Active”, the Activity (Drosophila melanogaster [6]) was “Non-toxic” and the Activity (COLO 205 [1]) was 15%. For the same molecule, the “fold change (FC)” value (Drosophila melanogaster [16]) was 2.5, the “fold change (FC)” value (Drosophila melanogaster [17]) was 3 and the Activity (Drosophila melanogaster [18]) was “Active”. For the same molecule, the “fold change (FC)” value (Drosophila melanogaster [19]) was 3, the “fold change (FC)” value (Drosophila melanogaster [20]) was 2 and the Activity (COLO 205 [2]) was “Active”. For the same molecule, the “fold change (FC)” value (COLO 205 [21]) was 3, the Activity (COLO 205 [22]) was “inactive” and the Activity (Drosophila melanogaster [7]) was “Non-toxic”. The Activity (COLO 205 [23]) was “Active”, the “fold change (FC)” value (Drosophila melanogaster [24]) was 3 and the “fold change (FC)” value (COLO 205 [25]) was 2.5. The Activity (Drosophila melanogaster [26]) was “Active”, the Activity (COLO 205 [27]) was “Active” and the Activity (COLO 205 [28]) was “inactive”. The Activity (COLO 205 [29]) was “Active”, the “fold change (FC)” value (Drosophila melanogaster [30]) was 3 and the “fold change (FC)” value (Drosophila melanogaster [31]) was 5. For the same molecule, the “fold change (FC)” value (Drosophila melanogaster [32]) was 3, the Activity (COLO 205 [3]) was 5% and the Activity (Drosophila melanogaster [33]) was “Active”. The Activity (COLO 205 [4]) was “Active”, the Activity (Drosophila melanogaster [34]) was “inactive” and the Activity (COLO 205 [8]) was “Active”. For the same molecule, the Activity (COLO 205 [35]) was “inactive”, the Activity (COLO 205 [36]) was “Active” and the Activity (COLO 205 [37]) was “Active”. The Activity (COLO 205 [38]) was “inactive”, the Activity (Drosophila melanogaster [9]) was “Active” and the Activity (Drosophila melanogaster [10]) was “Active”. For the same molecule, the Activity (Drosophila melanogaster [39]) was “Active”, the “fold change (FC)” value (Drosophila melanogaster [40]) was 4 and the Activity (COLO 205 [41]) was “Active”. The “fold change (FC)” value (Drosophila melanogaster [42]) was 4, the Activity (COLO 205 [5]) was 80% and the Activity (Drosophila melanogaster [11]) was “inactive”.
With `Cc1ccc2c(c1)sc1nc(-c3ccccc3)c(CN3CCCC3)n12` the Activity (Drosophila melanogaster [6]) was “Non-toxic”, the Activity (Drosophila melanogaster [7]) was “Non-toxic” and the Activity (COLO 205 [8]) was “Active”.
`CCOc1ccc2c(c1)sc1nc(-c3ccccc3)c(CN3CCCC3)n12` was tested, and the Activity (Drosophila melanogaster [6]) was “Non-toxic”, the Activity (Drosophila melanogaster [7]) was “Non-toxic” and the Activity (COLO 205 [8]) was “Active”.
